Source: patent US10626126B2, “Compounds” (Pulmocide Limited, priority 2016, dated 2020)

Legend:
Type in all cases: cell-based
RSV A2 strain = test: RSV A2 induced CPE in HEp2 cells; details: human respiratory syncytial virus; for IC50: HEp-2, 120 h, 5 days; for inhibition at 0.01 µg/mL: HEp-2, at 0.01 μg/mL
Procedure: (§1) HEp2 cells were seeded (10^3/well/50 μL) in 384-well plates (Catalogue number 353962, BD Falcon, Oxford, UK) in 5% FBS-DMEM (containing 2 mM L-glutamine and 1 mM sodium pyruvate) one day before infection. […] Simultaneously, test compounds (0.5 μL DMSO solution) were added to 100 μL of HEp2 cell culture with virus solution to provide a final DMSO solution of 0.5%. […] Sigma-Aldrich, Dorset, UK) was added to each well and the plate incubated for a further 6 hr (37° C./5% CO2). The fluorescence of each well [545 nm (excitation)/590 nm (emission)] was determined using a multi-scanner (Clariostar: BMG, Buckinghamshire, UK). The percentage inhibition for each well was calculated and the IC50, IC75 and IC90 values were calculated from the concentration-response curve generated for each test compound.

RSV B Washington strain = test: RSV B induced CPE in HEp2 cells; details: human respiratory syncytial virus; for IC50: HEp-2, 144 h, 6 days; for inhibition at 0.1 µg/mL: HEp-2, at 0.1 μg/mL; for inhibition at 1 µg/mL: HEp-2, at 1 μg/mL
Procedure: as §1

[1] = Cell viability: resazurin assay; details: human, HEp2 cells
Procedure: HEp2 cells were seeded in 384-well plates (10^3/well/50 μL; BD Falcon Ref 353962) in FBS DMEM (5%, containing 2 mM L-glutamine and 1 mM sodium pyruvate) one day before experimentation. Serum-free DMEM (50 μL) was added to test wells, while for control wells the media was removed and sterile water (100 μL) added. Test compounds (0.5 μL DMSO solution) were added to give a final DMSO concentration of 0.5%. HEp2 cells were incubated with each test compound for 5 days (37° C./5% CO2 in 2.5% FBS) and then resazurin stock solution (5 μL; 0.03%) was added to each well and the plate incubated for a further 6 hr (37° C./5% CO2). The fluorescence of each well at 545 nm (excitation) and 590 nm (emission) was determined using a multi-scanner (Clariostar: BMG Labtech). The percentage loss of cell viability was calculated for each well relative to vehicle (0.5% DMSO) treatment. Note that any apparent increase in cell viability associated with test compound treatment relative to vehicle is consequently tabulated as a negative percentage. Where appropriate, a CC50 value was calculated from the concentration-response curve generated from the concentration-response curve for each test compound.

| SMILES | IC50 (RSV A2 strain) | IC50 (RSV B Washington strain) | inhibition at 0.01 µg/mL (RSV A2 strain) | inhibition at 0.1 µg/mL (RSV B Washington strain) | CC50 at 5 days [1] | inhibition at 1 µg/mL (RSV B Washington strain) |
| --- | --- | --- | --- | --- | --- | --- |
| Cc1cnc(N2CC3(CCOCC3)C2)c(C(=O)Nc2ccc(C(=O)N3CCc4cc(C(=O)Nc5c(F)cc(F)cc5F)sc4-c4sccc43)cc2)c1 [Example 17, 4-(4-(5-methyl-2-(7-oxa-2-azaspiro[3.5]nonan-2-yl)nicotinamido)benzoyl)-N-(2,4,6-trifluorophenyl)-5,6-dihydro-4H-dithieno[3,2-b:2′,3′-d]azepine-8-carboxamide] | 0.17 nM | 19 nM | 92% | 100% | > 13400 nM | – |
| Cc1cc(C(=O)Nc2ccc(C(=O)N3CCc4cc(C(=O)Nc5c(F)cccc5F)sc4-c4sccc43)cc2)c(N2CC3(CCOCC3)C2)nc1C [Example 4, N-(2,6-Difluorophenyl)-4-(4-(5,6-dimethyl-2-(7-oxa-2-azaspiro[3.5]nonan-2-yl)nicotinamido)benzoyl)-5,6-dihydro-4H-dithieno[3,2-b:2′,3′-d]azepine-8-carboxamide] | 0.28 nM | 18 nM | 96% | 98% | > 13500 nM | – |
| COc1cccc(F)c1NC(=O)c1cc2c(s1)-c1sccc1N(C(=O)c1ccc(NC(=O)c3cc(C)cnc3N3CC4(CCOCC4)C3)cc1)CC2 [Example 16, N-(2-fluoro-6-methoxyphenyl)-4-(4-(5-methyl-2-(7-oxa-2-azaspiro[3.5]nonan-2-yl)nicotinamido)benzoyl)-5,6-dihydro-4H-dithieno[3,2-b:2′,3′-d]azepine-8-carboxamide] | 0.18 nM | 32 nM | 96% | 100% | > 13600 nM | – |
| [2H]c1c([2H])c(C(=O)N2CCc3cc(C(=O)Nc4c(F)cccc4F)sc3-c3sccc32)c([2H])c([2H])c1NC(=O)c1cc(C)cnc1N1CC2(CCOCC2)C1 [Example 3, N-(2,6-difluorophenyl)-4-(4-(5-methyl-2-(7-oxa-2-azaspiro[3.5]nonan-2-yl)nicotinamido)benz-y-2,3,5,6-d4)-5,6-dihydro-4H-dithieno[3,2-b:2′,3′-d]azepine-8-carboxamide] | 0.15 nM | 14 nM | 95% | 100% | > 13700 nM | – |
| COc1ccc(C(=O)Nc2ccc(C(=O)N3CCc4cc(C(=O)Nc5c(F)cccc5F)sc4-c4sccc43)cc2)c(N2CC3(CCOCC3)C2)n1 [Example 22, N-(2,6-difluorophenyl)-4-(4-(6-methoxy-2-(7-oxa-2-azaspiro[3.5]nonan-2-yl)nicotinamido)benzoyl)-5,6-dihydro-4H-dithieno[3,2-b:2′,3′-d]azepine-8-carboxamide] | 1.7 nM | 159 nM | 94% | – | > 13500 nM | 94% |
| O=C(Nc1c(F)cccc1F)c1cc2c(s1)-c1sccc1N(C(=O)c1ccc(NC(=O)c3cccnc3N3CC4(CCOCC4)C3)cc1F)CC2 [Example 7, 4-(4-(2-(7-oxa-2-azaspiro[3.5]nonan-2-yl)nicotinamido)-2-fluorobenzoyl)-N-(2,6-difluorophenyl)-5,6-dihydro-4H-dithieno[3,2-b:2′,3′-d]azepine-8-carboxamide] | 2.6 nM | 97 nM | 87% | – | > 13700 nM | 82% |
| Cc1cnc(N2CC3(CCOCC3)C2)c(C(=O)Nc2ccc(C(=O)N3CCc4cc(C(=O)Nc5c(C)cccc5F)sc4-c4sccc43)cc2)c1 [Example 11, N-(2-fluoro-6-methylphenyl)-4-(4-(5-methyl-2-(7-oxa-2-azaspiro[3.5]nonan-2-yl)nicotinamido)benzoyl)-5,6-dihydro-4H-dithieno[3,2-b:2′,3′-d]azepine-8-carboxamide] | 0.21 nM | 8.3 nM | 100% | 100% | > 13900 nM | – |
| Cc1cnc(N2CC3(CCOCC3)C2)c(C(=O)Nc2ccc(C(=O)N3CCc4cc(C(=O)Nc5c(O)cccc5F)sc4-c4sccc43)cc2)c1 [Example 15, N-(2-fluoro-6-hydroxyphenyl)-4-(4-(5-methyl-2-(7-oxa-2-azaspiro[3.5]nonan-2-yl)nicotinamido)benzoyl)-5,6-dihydro-4H-dithieno[3,2-b:2′,3′-d]azepine-8-carboxamide] | 0.3 nM | 86 nM | 100% | – | > 13800 nM | 90% |
| Cc1cnc(N2CC3(CCOCC3)C2)c(C(=O)Nc2ccc(C(=O)N3CCc4cc(C(=O)Nc5c(F)cccc5F)sc4-c4sccc43)c(F)c2)c1 [Example 18, N-(2,6-difluorophenyl)-4-(2-fluoro-4-(5-methyl-2-(7-oxa-2-azaspiro[3.5]nonan-2-yl)nicotinamido)benzoyl)-5,6 dihydro-4H-dithieno[3,2-b:2′,3′-d]azepine-8-carboxamide] | 0.17 nM | 14 nM | 100% | 92% | > 13400 nM | – |
| Cc1cc(C(=O)Nc2ccc(C(=O)N3CCc4cc(C(=O)Nc5c(F)cccc5F)sc4-c4sccc43)c(F)c2)c(N2CC3(CCOCC3)C2)nc1C [Example 23, N-(2,6-difluorophenyl)-4-(4-(5,6-dimethyl-2-(7-oxa-2-azaspiro[3.5]nonan-2-yl)nicotinamido)-2-fluorobenzoyl)-5,6-dihydro-4H-dithieno[3,2-b:2′,3′-d]azepine-8-carboxamide] | 0.67 nM | 70 nM | 96% | – | > 13200 nM | 96% |

Further lines, with some results ahead:

| IC50 (RSV A2 strain) | IC50 (RSV B Washington strain) | SMILES | inhibition at 0.01 µg/mL (RSV A2 strain) | inhibition at 0.1 µg/mL (RSV B Washington strain) | CC50 at 5 days [1] | inhibition at 1 µg/mL (RSV B Washington strain) |
| --- | --- | --- | --- | --- | --- | --- |
| 0.54 nM | 11 nM | Cc1cccc(F)c1NC(=O)c1cc2c(s1)-c1sccc1N(C(=O)c1ccc(NC(=O)c3cc4c(nc3N3CC5(CCOCC5)C3)CCC4)cc1)CC2 [Example 24, 4-(4-(2-(7-oxa-2-azaspiro[3.5]nonan-2-yl)-6,7-dihydro-5H-cyclopenta[b]pyridine-3-carboxamido)benzoyl)-N-(2-fluoro-6-methylphenyl)-5,6-dihydro-4H-dithieno[3,2-b:2′,3′-d] azepine-8-carboxamide] | 98% | 84% | > 13400 nM | – |
| 10.8 nM | 1050 nM | O=C(Nc1c(F)cccc1F)c1cc2c(s1)-c1sccc1N(C(=O)c1ccc(NC(=O)c3cccnc3N3CC4(COC4)C3)cc1)CC2 [Example 31, 4-(4-(2-(2-oxa-6-azaspiro[3.3]heptan-6-yl)nicotin-amido)benzoyl)-N-(2,6-difluorophenyl)-5,6-dihydro-4H-dithieno[3,2-b:2′,3′-d]azepine-8-carboxamide] | 62% | – | > 14600 nM | 57% |
| 0.63 nM | 32 nM | O=C(Nc1c(F)cccc1F)c1cc2c(s1)-c1sccc1N(C(=O)c1ccc(NC(=O)c3cc4ccccc4nc3N3CC4(CCOCC4)C3)cc1)CC2 [Example 27, 4-(4-(2-(7-oxa-2-azaspiro[3.5]nonan-2-yl)quinoline-3-carboxamido)benzoyl)-N-(2,6-difluorophenyl)-5,6-dihydro-4H-dithieno[3,2-b:2′,3′-d]azepine-8-carboxamide] | 94% | – | > 13100 nM | 93% |
| 0.48 nM | 15 nM | O=C(Nc1c(F)cccc1F)c1cc2c(s1)-c1sccc1N(C(=O)c1ccc(NC(=O)c3cc4sccc4nc3N3CC4(CCOCC4)C3)cc1F)CC2 [Example 28, 4-(4-(5-(7-oxa-2-azaspiro[3.5]nonan-2-yl)thieno[3,2-b]pyridine-6-carboxamido)-2-fluorobenzoyl)-N-(2,6-difluorophenyl)-5,6-dihydro-4H-dithieno[3,2-b:2′,3′-d] azepine-8-carboxamide] | 89% | 92% | > 12700 nM | – |
| 4.4 nM | > 1330 nM | Cc1cnc(N2CCC3(CCOCC3)CC2)c(C(=O)Nc2ccc(C(=O)N3CCc4cc(C(=O)Nc5c(F)cccc5F)sc4-c4sccc43)cc2)c1 [Example 34, N-(2,6-difluorophenyl)-4-(4-(5-methyl-2-(3-oxa-9-azaspiro[5.5]undecan-9-yl)nicotinamido)benzoyl)-5,6-dihydro-4H-dithieno[3,2-b:2′,3′-d]azepine-8-carboxamide] | 100% | – | > 13300 nM | 9% |
